In US5520918A, “Low irritant skin-cosmetic composition for daily topical use, its application and manufacture” (Mary Kay Cosmetics, Inc., priority 1994, dated 1996):

What was measured:
[1] = system: skin pH; test: Test I: duration of skin pH changes; assay type: in vivo, human (volunteer subjects); conditions: text to Test I
Description: Tests were performed on volunteer subjects using the procedures, conditions and ingredients substantially as described in connection with Test F above, while employing the proportion of active acidic ingredients indicated.

[2] = system: hair-loss; test: Hair-loss prevention efficacy of minoxidil combined with the two-component acid system (preliminary data); assay type: in vivo

## O=C(O)C(O)C(O)C(=O)O (stereo not drawn) [(+)tartaric acid]
[1]
  duration of impact on skin pH changes: 2 hours

## Nc1cc(N2CCCCC2)nc(N)[n+]1[O-] [minoxidil]
[2]
  efficacy of minoxidil in combination (in words): enhanced by combination with the inventive two-component acid system

## O=C(O)c1ccccc1O [salicylic acid, 2-hydroxybenzoic acid]
other
  water solubility (in words): only moderately or sparingly water soluble
Text to Test I
  water solubility: less than 1 g. in 5 ml. of water
